Results on 10 compounds are retold here after ChEMBL document CHEMBL1201862, “PubChem BioAssay data set” (2004).

Test systems include 786-0; BT-549; CAKI-1; CCRF-CEM; COLO 205; HCC 2998; HCT-116; HCT-15; HL-60; HOP-62; MDA-MB-231; MDA-N; OVCAR-4; SK-OV-3; SN12C; SNB-75; SR; SW-620; UACC-257; UO-31.
Assay in all cases: NCI tumour cell line growth inhibition, 48 h

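Following 48 hours of exposure in 96-well plates, responses at five concentrations were used to interpolate endpoints linearly. GI50 marks 50% less growth.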 Activity calls are given as the source filed them. No stated cut-off is given here; in the data, active = GI50 up to about 1.1 µM and inactive = higher.

Take `CC[C@@H](/C=C\CCC1(C[C@@H](N)CCC=C(C)C)OCCO1)O[Si](C(C)C)(C(C)C)C(C)C`: the GI50 was 17.4 µM (inactive) with 786-0; 20.1 µM (inactive) in the test with BT-549; 18.8 µM (inactive) in the test with CAKI-1; 11.6 µM (inactive) with CCRF-CEM; 13.6 µM (inactive) with COLO 205; 13 µM (inactive) in the test with HCC 2998. Further, the GI50 in the test with HCT-116 was 17.1 µM (inactive); in the test on HCT-15, 18.9 µM; in the test with HL-60, 4.28 µM (inactive); with HOP-62, 22 µM (inactive); in the test with MDA-MB-231, 19 µM (inactive); with MDA-N it was 16.4 µM (inactive). Moreover, the GI50 with OVCAR-4 was 19.1 µM (inactive); in the test on SK-OV-3, 20 µM (inactive); in the test on SN12C, 17.3 µM (inactive); with SNB-75, 18.9 µM (inactive); in the test with SR it was 3.27 µM (inactive); in the test with SW-620 it was 21.7 µM (inactive). Also, the values for the GI50 with UACC-257 and in the test on UO-31 were 19.3 µM (inactive) and 17.6 µM (inactive), respectively.

For `O=C(/C=C/c1ccc(O)cc1)c1ccc(O)cc1` [4,4'-DIHYDROXYCHALCONE], the GI50 was 23.2 µM (inactive) in the test on 786-0; 32.6 µM (inactive) in the test with BT-549; 18.1 µM (inactive) in the test with CAKI-1; 13.6 µM (inactive) in the test with CCRF-CEM; 30.4 µM (inactive) in the test with COLO 205; 24 µM (inactive) in the test on HCC 2998. Also, the GI50 with HCT-116 is 16.8 µM (inactive); with HCT-15, 20.3 µM; in the test on HL-60, 17 µM (inactive); in the test with HOP-62, 21.8 µM (inactive); in the test with MDA-MB-231 it was 43.7 µM (inactive); with MDA-N, 27.4 µM (inactive). Moreover, the GI50 in the test with OVCAR-4 is > 69.8 µM (inactive); with SK-OV-3, 42.6 µM (inactive); with SN12C, 31.2 µM (inactive); in the test with SNB-75, 20.9 µM (inactive); with SR, 9.71 µM (inactive); in the test on SW-620, 26.1 µM (inactive). Further, the GI50 in the test on UACC-257 is 29.5 µM (inactive); with UO-31, 22 µM (inactive).

`NS(=O)(=O)c1ccc(/N=N/c2c(O)c(C(=O)O)cc3ccccc23)cc1`: the GI50 was > 100 µM (inactive) in the test on 786-0; > 100 µM (inactive) with BT-549; > 100 µM (inactive) in the test on CAKI-1; > 100 µM (inactive) in the test with CCRF-CEM; > 54.5 µM (inactive) in the test on COLO 205; > 100 µM (inactive) with HCC 2998. In addition, the GI50 in the test on HCT-116 is > 100 µM (inactive); with HCT-15, over 100 µM; in the test on HL-60 it was > 100 µM (inactive); in the test with HOP-62, 99.1 µM (inactive); in the test with MDA-MB-231 it was > 100 µM (inactive); with MDA-N, 59.2 µM (inactive). The GI50 with OVCAR-4 was > 100 µM (inactive); in the test with SK-OV-3, > 100 µM (inactive); in the test on SN12C, > 100 µM (inactive); in the test with SNB-75, > 100 µM (inactive); with SR, 33.3 µM (inactive); in the test on SW-620, > 92.3 µM (inactive). Also, the GI50 in the test on UACC-257 and in the test with UO-31 was > 100 µM (inactive) throughout.

As for `N/C(=N/c1ccc(O)cc1)S(=O)O`, the GI50 was > 100 µM (inactive) in the test with 786-0; > 100 µM (inactive) with BT-549; > 100 µM (inactive) in the test with CAKI-1; 89.9 µM (inactive) in the test with CCRF-CEM; > 100 µM (inactive) with COLO 205; > 100 µM (inactive) in the test on HCC 2998. Further, the GI50 in the test on HCT-116 was > 100 µM (inactive); in the test with HCT-15 it was over 100 µM; in the test with HL-60, > 100 µM (inactive); in the test with HOP-62 it was > 100 µM (inactive); in the test with MDA-MB-231 it was > 100 µM (inactive); with MDA-N it was > 100 µM (inactive). For the same compound, the GI50 with OVCAR-4 is > 100 µM (inactive); in the test on SK-OV-3 it was 41.5 µM (inactive); with SN12C, > 100 µM (inactive); with SNB-75 it was > 100 µM (inactive); with SR, > 100 µM (inactive); with SW-620 it was > 100 µM (inactive). Moreover, the GI50 in the test on UACC-257 and with UO-31 was > 100 µM (inactive) throughout.

Turning to `COc1ccc(Cn2c3c(cc(OS(=O)(=O)C(F)(F)F)c2=O)Cc2ccccc2-3)cc1`, the GI50 in the test with 786-0 was 4.89 µM (inactive); in the test with BT-549 it was 24.9 µM (inactive); in the test with CAKI-1, 20.9 µM (inactive); in the test with CCRF-CEM, 6.27 µM (inactive); in the test with COLO 205 it was 9.95 µM (inactive); in the test on HCC 2998, 11.7 µM (inactive). The GI50 is 14.9 µM (inactive) with HCT-116; 3.22 µM with HCT-15; 10.7 µM (inactive) with HL-60; 21.9 µM (inactive) with HOP-62; > 50 µM (inactive) in the test on MDA-MB-231; 12.9 µM (inactive) with MDA-N. In addition, the GI50 in the test with OVCAR-4 is 19.3 µM (inactive); with SK-OV-3, 25.1 µM (inactive); with SN12C, 16.9 µM (inactive); with SNB-75 it was > 50 µM (inactive); in the test on SR, 4.36 µM (inactive); with SW-620, 10.3 µM (inactive). The results for the GI50 with UACC-257 and in the test with UO-31 were 11.9 µM (inactive) and 7.33 µM (inactive), respectively.

As to `COc1cc(C(=O)O)ccc1OS(=O)(=O)O`, the GI50 with 786-0, in the test with BT-549, with CAKI-1, in the test on CCRF-CEM, in the test on COLO 205 and with HCC 2998 was > 100 µM (inactive) each time. For the same compound, the GI50 in the test on HCT-116 was > 100 µM (inactive); in the test with HCT-15, over 100 µM; in the test on HL-60, > 100 µM (inactive); in the test on HOP-62, > 100 µM (inactive); in the test with MDA-MB-231, > 100 µM (inactive); in the test on MDA-N, > 100 µM (inactive). The GI50 with OVCAR-4, in the test on SK-OV-3, in the test with SN12C, in the test with SNB-75, in the test on SR and in the test on SW-620 was > 100 µM (inactive) in each case. The GI50 with UACC-257 and with UO-31 was > 100 µM (inactive) in each case.

Consider `COc1cccc(/C=N/n2c(Cc3ccc(Cl)cc3)n[nH]c2=O)c1`, for which the GI50 in the test on 786-0 was 25.1 µM (inactive); in the test on BT-549 it was 26.1 µM (inactive); in the test with CAKI-1 it was 23.4 µM (inactive); with CCRF-CEM, > 100 µM (inactive); with COLO 205, > 100 µM (inactive); in the test on HCC 2998 it was > 100 µM (inactive). For the same compound, the GI50 is 47.8 µM (inactive) with HCT-116; 99.3 µM in the test with HCT-15; > 100 µM (inactive) in the test with HL-60; 15.4 µM (inactive) in the test on HOP-62; 19.7 µM (inactive) with MDA-MB-231; > 100 µM (inactive) in the test with MDA-N. Moreover, the GI50 in the test with OVCAR-4 is > 92.9 µM (inactive); with SK-OV-3 it was 27.7 µM (inactive); with SN12C, 24.3 µM (inactive); in the test on SNB-75 it was 11.7 µM (inactive); with SR, > 76.9 µM (inactive); in the test on SW-620, > 100 µM (inactive). For the same compound, the GI50 in the test on UACC-257 was > 100 µM (inactive); with UO-31, > 73.5 µM (inactive).

In the case of `O=C(c1cc(Cl)cc(Cl)c1)N(Cc1cccnc1)C(=S)N(Cc1cccnc1)C(=O)c1cc(Cl)cc(Cl)c1`, the GI50 in the test on 786-0 is 17.3 µM (inactive); with BT-549, 29.2 µM (inactive); in the test on CAKI-1, 41.3 µM (inactive); in the test on CCRF-CEM, 17.1 µM (inactive); in the test on COLO 205 it was 15.3 µM (inactive); in the test with HCC 2998, 19.3 µM (inactive). Moreover, the GI50 was 31.1 µM (inactive) in the test with HCT-116; 25.2 µM in the test with HCT-15; 25.3 µM (inactive) in the test on HL-60; 29.9 µM (inactive) in the test on HOP-62; 26.5 µM (inactive) in the test on MDA-MB-231; 31.3 µM (inactive) in the test with MDA-N. The GI50 with OVCAR-4 is 27.3 µM (inactive); in the test on SK-OV-3 it was > 100 µM (inactive); in the test on SN12C, 41.4 µM (inactive); in the test on SNB-75 it was 92.7 µM (inactive); in the test on SR it was 16.1 µM (inactive); with SW-620 it was 27.9 µM (inactive). Besides, the values for the GI50 in the test on UACC-257 and with UO-31 were 33 µM (inactive) and 24.8 µM (inactive), respectively.

For `CCCCCC(O)(CCCCC)CCCCCCCCC1=C(O)C(=O)c2ccccc2C1=O`, the GI50 with 786-0 is 6.32 µM (inactive); in the test with BT-549, 14.7 µM (inactive); in the test with CAKI-1, 12 µM (inactive); with CCRF-CEM, 6.12 µM (inactive); in the test with COLO 205 it was 20.7 µM (inactive); with HCC 2998 it was 16.6 µM (inactive). The GI50 with HCT-116 is 3.83 µM (inactive); in the test with HCT-15, 4.18 µM; in the test on HL-60 it was 3.51 µM (inactive); in the test on HOP-62, 11.6 µM (inactive); in the test on MDA-MB-231 it was 11.4 µM (inactive); in the test with MDA-N, 10.5 µM (inactive). Further, the GI50 was 9.79 µM (inactive) in the test with OVCAR-4; 15.6 µM (inactive) in the test on SK-OV-3; 9.04 µM (inactive) in the test with SN12C; 28.1 µM (inactive) in the test with SNB-75; 3.44 µM (inactive) with SR; 7.46 µM (inactive) in the test with SW-620. Also, the GI50 in the test on UACC-257 was 12.6 µM (inactive); in the test with UO-31, 10.3 µM (inactive).

Consider `C/C(=N\Nc1nc2ccccc2o1)c1ncccn1`, for which the GI50 in the test on 786-0 was < 0.0252 µM (active); with BT-549, 0.643 µM (active); in the test with CAKI-1 it was < 0.01 µM (active); in the test on CCRF-CEM, < 0.01 µM (active); with COLO 205, < 0.01 µM (active); in the test with HCC 2998 it was 0.141 µM (active). Besides, the GI50 with HCT-116 was < 0.0175 µM (active); in the test with HCT-15, under 0.0211 µM; with HL-60, < 0.01 µM (active); with HOP-62, 0.0908 µM (active); in the test on MDA-MB-231, < 0.0208 µM (active); with MDA-N, 0.3 µM (active). Further, the GI50 was < 0.01 µM (active) in the test with OVCAR-4; 0.0312 µM (active) in the test on SK-OV-3; < 0.0158 µM (active) in the test with SN12C; 1.85 µM (inactive) with SNB-75; < 0.02 µM (active) in the test with SR; < 0.01 µM (active) in the test on SW-620. In addition, the GI50 was < 0.022 µM (active) in the test with UACC-257 and < 0.0313 µM (active) with UO-31.
